Values of other authors, collected in patent US6426407B1, “Residues for binding third strands to complementary nucleic acid duplexes of any base pair sequence” (Codon Pharm., priority 1995, dated 2002).

Experiments:
[1] = tested on: center strand purine A; further: key: a '+' means the bases are complementary or correspondent; a '−' means they are not complementary or not correspondent
[2] = tested on: center strand purine G; further: key: a '+' means the bases are complementary or correspondent; a '−' means they are not complementary or not correspondent
[3] = tested on: homopolymer GC duplexes, homopolymer AT duplexes, and mixed base-pair duplexes with alternating AG in the center strand

Row | SMILES | third strand base complementary to center strand purine [1] | third strand base complementary to center strand purine [2] | triplex formation [3]
1 | Nc1ncnc2nc[nH]c12 [A, adenine] | + | − | 
2 | Nc1cc[nH]c(=O)n1 [C, cytosine] | − | + | 
3 | Nc1nc2nc[nH]c2c(=O)[nH]1 [G, guanine] | − | + | 
4 | OC[C@H]1O[C@@H](n2cnc3c(O)ncnc32)[C@H](O)[C@@H]1O [I, inosine] | + | + | forms triplexes
